Assay results taken from US10710978B2, “STK4 inhibitors for treatment of hematologic malignancies” (Dana-Farber Cancer Institute, Inc., priority 2015, dated 2020).
“And” between values parts separate entries of the source, which are not always exact repeats. Equal values may be shown once. Read-outs that look alike come from different tables or passages of the source.

Assays:
Assay in all cases: KiNativ assay
Format in all cases: binding
Settings in all cases: H929 live cell
CDK5 = CDK5 (Homo sapiens (Human), UniProt Q00535)
Protocol: (§1) Biochemical IC50s of the compounds of the present disclosure against various kinases were measured in a KiNativ assay. Compounds were screened in duplicate at 10 μM in H929 live cell. IC50 was measured via Mass spectroscopy (MS).

MAP3K2, MAP3K3 = tested on: MAP3K2, MAP3K3
Protocol: as §1

AurA = AurA (Homo sapiens (Human), UniProt O14965)
AurA, sequence (O14965 whole entry): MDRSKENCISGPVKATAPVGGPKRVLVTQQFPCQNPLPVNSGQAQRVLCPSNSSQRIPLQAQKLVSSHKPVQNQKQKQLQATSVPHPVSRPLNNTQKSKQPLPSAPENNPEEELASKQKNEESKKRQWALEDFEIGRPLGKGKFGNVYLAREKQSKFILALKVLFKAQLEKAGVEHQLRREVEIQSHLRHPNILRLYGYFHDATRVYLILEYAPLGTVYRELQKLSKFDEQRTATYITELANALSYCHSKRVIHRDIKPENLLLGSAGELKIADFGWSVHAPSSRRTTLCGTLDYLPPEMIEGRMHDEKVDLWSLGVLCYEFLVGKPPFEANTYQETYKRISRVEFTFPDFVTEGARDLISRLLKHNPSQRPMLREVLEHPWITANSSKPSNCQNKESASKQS
Protocol: as §1

NEK3 = NEK3 (Homo sapiens (Human), UniProt P51956)
Protocol: as §1

CaMK1d = CaMK1d (Homo sapiens (Human), UniProt Q8IU85)
Protocol: as §1

STLK5 = STLK5 (Homo sapiens (Human), UniProt Q7RTN6)
STLK5, sequence (Q7RTN6 whole entry): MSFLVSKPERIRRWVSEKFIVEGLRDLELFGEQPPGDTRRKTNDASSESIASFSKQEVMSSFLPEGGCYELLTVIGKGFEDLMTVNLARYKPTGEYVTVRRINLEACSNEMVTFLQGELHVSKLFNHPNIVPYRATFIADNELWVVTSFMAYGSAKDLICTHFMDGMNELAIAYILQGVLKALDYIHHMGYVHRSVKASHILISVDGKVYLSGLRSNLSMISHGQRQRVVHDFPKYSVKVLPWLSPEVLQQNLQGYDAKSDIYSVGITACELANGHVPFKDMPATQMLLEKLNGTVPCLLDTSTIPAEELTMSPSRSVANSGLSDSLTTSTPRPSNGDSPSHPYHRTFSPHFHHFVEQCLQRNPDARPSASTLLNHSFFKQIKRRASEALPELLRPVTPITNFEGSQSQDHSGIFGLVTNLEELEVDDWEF
Protocol: as §1

p38d, p38g = tested on: p38d, p38g
Protocol: as §1

LKB1 = LKB1 (Homo sapiens (Human), UniProt Q15831)
LKB1, sequence (Q15831 whole entry): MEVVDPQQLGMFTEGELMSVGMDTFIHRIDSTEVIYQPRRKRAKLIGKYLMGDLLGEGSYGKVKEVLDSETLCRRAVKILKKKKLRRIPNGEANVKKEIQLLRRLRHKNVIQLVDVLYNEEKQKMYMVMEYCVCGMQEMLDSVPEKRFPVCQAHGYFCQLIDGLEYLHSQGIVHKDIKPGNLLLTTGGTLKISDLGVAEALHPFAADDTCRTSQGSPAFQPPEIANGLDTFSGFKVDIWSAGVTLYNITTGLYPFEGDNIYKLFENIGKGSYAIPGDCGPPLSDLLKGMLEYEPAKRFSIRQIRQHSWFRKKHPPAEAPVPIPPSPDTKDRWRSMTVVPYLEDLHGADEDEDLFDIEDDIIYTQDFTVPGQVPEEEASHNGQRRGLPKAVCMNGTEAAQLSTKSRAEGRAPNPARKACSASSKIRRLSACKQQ
Protocol: as §1

MSK2 domain1 = MSK2 domain1 (Homo sapiens (Human), UniProt O75676)
MSK2 domain1, sequence (O75676 whole entry, the tested form may be a part): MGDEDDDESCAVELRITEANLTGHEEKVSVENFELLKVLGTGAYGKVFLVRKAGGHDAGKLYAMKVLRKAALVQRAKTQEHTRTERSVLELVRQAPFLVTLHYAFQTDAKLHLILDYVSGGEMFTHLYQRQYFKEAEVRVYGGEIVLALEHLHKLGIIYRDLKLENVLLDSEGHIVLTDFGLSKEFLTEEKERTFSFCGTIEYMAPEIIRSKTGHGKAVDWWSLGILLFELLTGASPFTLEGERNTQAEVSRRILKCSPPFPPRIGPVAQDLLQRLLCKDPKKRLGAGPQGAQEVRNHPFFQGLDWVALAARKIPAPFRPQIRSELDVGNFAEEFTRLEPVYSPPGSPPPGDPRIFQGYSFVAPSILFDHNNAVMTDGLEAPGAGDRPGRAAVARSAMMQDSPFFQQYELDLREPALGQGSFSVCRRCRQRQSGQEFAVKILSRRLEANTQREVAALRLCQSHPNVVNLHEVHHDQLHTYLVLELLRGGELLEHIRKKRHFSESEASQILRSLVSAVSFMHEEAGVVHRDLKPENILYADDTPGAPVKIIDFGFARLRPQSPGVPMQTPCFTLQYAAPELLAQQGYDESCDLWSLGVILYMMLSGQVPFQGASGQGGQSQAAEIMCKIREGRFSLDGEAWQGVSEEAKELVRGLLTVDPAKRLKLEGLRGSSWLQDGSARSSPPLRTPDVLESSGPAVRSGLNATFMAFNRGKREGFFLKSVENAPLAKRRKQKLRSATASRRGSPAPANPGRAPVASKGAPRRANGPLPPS
Protocol: as §1

GCN2 domain2 = GCN2 domain2 (Homo sapiens (Human), UniProt Q9P2K8)
GCN2 domain2, sequence (Q9P2K8 whole entry, the tested form may be a part): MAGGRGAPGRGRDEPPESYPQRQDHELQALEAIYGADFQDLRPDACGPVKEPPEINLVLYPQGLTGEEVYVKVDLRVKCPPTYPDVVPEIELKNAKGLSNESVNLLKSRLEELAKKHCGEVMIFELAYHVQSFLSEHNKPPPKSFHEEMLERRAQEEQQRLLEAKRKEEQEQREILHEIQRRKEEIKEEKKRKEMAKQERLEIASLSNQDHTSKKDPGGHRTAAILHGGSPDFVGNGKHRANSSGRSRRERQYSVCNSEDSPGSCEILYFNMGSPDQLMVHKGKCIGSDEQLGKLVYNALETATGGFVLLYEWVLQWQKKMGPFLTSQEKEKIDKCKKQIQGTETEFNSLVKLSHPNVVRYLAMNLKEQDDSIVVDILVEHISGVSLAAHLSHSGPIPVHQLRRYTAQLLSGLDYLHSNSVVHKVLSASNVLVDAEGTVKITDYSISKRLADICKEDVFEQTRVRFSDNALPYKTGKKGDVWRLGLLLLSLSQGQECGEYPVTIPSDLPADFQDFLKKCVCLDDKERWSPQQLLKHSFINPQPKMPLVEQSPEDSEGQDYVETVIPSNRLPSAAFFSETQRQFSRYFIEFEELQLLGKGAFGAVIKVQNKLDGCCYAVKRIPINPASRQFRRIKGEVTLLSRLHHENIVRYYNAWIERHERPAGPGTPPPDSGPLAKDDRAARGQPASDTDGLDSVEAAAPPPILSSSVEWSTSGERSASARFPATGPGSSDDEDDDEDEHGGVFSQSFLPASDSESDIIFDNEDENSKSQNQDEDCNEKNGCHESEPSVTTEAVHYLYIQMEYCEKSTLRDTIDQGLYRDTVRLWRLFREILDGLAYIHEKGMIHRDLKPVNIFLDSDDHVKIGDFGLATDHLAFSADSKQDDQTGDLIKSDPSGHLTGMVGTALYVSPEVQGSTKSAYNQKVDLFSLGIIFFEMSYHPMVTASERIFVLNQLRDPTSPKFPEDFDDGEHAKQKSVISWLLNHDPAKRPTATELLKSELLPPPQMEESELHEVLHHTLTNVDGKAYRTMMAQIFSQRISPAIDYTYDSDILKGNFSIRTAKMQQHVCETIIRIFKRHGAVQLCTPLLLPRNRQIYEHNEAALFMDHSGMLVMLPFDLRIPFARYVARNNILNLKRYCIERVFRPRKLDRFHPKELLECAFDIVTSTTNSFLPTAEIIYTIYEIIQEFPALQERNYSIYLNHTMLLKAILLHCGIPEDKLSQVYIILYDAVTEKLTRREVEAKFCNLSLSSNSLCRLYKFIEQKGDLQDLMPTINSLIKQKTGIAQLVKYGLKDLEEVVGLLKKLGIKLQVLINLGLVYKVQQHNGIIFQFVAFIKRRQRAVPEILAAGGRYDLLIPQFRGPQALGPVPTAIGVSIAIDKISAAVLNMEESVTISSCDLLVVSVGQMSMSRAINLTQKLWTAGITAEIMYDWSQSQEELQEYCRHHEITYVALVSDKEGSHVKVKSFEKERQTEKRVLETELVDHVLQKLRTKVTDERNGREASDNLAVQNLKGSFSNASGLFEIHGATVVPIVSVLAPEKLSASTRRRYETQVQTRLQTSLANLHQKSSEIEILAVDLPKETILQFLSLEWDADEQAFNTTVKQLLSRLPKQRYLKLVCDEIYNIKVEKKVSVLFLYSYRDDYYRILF
Protocol: as §1

[1] = tested on: CaMK2a, CaMK2b, CaMK2d, CaMK2g
Protocol: as §1

PRPK = PRPK (Homo sapiens (Human), UniProt Q96S44)
Protocol: as §1

MARK2, MARK3 = tested on: MARK2, MARK3
Protocol: as §1

[2] = tested on: ZC1/HGK, ZC2/TNIK, ZC3/MINK
Protocol: as §1

TLK1 = TLK1 (Homo sapiens (Human), UniProt Q9UKI8)
Protocol: as §1

MAP2K3 = MAP2K3 (Homo sapiens (Human), UniProt P46734)
Protocol: as §1

NEK6, NEK7 = tested on: NEK6, NEK7
Protocol: as §1

IRAK4 = IRAK4 (Homo sapiens (Human), UniProt Q9NWZ3)
IRAK4, sequence (Q9NWZ3 whole entry): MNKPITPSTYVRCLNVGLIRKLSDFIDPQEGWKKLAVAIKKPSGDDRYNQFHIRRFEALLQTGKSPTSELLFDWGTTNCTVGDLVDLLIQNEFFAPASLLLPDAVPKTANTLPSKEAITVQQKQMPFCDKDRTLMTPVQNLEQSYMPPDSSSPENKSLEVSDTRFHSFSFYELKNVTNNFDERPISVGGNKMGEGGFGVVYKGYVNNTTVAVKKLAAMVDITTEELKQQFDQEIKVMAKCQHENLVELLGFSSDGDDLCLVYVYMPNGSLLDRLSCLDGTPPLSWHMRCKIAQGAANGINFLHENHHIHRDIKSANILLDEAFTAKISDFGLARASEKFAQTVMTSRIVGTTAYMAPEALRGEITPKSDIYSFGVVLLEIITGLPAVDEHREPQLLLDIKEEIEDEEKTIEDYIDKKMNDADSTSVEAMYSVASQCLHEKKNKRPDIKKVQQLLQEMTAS
Protocol: as §1

SGK3 = SGK3 (Homo sapiens (Human), UniProt Q96BR1)
Protocol: as §1

MAST3 = MAST3 (Homo sapiens (Human), UniProt O60307)
Protocol: as §1

p70S6K = p70S6K (Homo sapiens (Human), UniProt P23443)
Protocol: as §1

MLK3 = MLK3 (Homo sapiens (Human), UniProt Q16584)
Protocol: as §1

PEK = PEK (Homo sapiens (Human), UniProt Q9NZJ5)
Protocol: as §1

MAP2K1, MAP2K2 = tested on: MAP2K1, MAP2K2
Protocol: as §1

NuaK2 = NuaK2 (Homo sapiens (Human), UniProt Q9H093)
Protocol: as §1

MSK1 domain1 = MSK1 domain1 (Homo sapiens (Human), UniProt O75582)
Protocol: as §1

BARK1 = BARK1 (Homo sapiens (Human), UniProt P25098)
Protocol: as §1

LYN = LYN (Homo sapiens (Human), UniProt P07948)
LYN, sequence (P07948 whole entry): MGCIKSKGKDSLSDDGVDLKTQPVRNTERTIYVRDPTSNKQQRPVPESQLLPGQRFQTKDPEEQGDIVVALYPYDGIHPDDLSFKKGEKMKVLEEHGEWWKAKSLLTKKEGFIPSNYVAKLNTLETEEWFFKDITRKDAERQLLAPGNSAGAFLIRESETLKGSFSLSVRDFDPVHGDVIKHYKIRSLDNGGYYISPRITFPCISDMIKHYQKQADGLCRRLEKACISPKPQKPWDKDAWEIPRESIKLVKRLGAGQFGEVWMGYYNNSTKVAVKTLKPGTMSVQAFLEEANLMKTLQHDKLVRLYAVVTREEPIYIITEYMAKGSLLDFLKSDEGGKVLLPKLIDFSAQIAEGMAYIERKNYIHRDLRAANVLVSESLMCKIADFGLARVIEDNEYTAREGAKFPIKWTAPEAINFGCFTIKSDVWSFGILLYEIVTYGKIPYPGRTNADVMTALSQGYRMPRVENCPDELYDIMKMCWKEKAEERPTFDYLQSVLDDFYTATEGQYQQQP
Protocol: as §1

PKR = PKR (Homo sapiens (Human), UniProt P19525)
Protocol: as §1

PKCi = PKCi (Homo sapiens (Human), UniProt P41743)
Protocol: as §1

JAK1 domain1 = JAK1 domain1 (Homo sapiens (Human), UniProt P23458)
Protocol: as §1

FRAP = FRAP (Homo sapiens (Human), UniProt P42345)
Protocol: as §1

MAP2K6 = MAP2K6 (Homo sapiens (Human), UniProt P52564)
MAP2K6, sequence (P52564 whole entry): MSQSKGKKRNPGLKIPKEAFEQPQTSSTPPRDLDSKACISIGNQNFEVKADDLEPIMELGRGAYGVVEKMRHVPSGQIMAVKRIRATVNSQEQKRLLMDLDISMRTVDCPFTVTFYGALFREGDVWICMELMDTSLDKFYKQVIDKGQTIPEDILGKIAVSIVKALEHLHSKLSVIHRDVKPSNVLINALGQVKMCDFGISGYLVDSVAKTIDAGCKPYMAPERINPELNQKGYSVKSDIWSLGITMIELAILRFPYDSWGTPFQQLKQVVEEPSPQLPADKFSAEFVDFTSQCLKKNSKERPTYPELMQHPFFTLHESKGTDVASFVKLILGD
Protocol: as §1

RSK1 domain2 = RSK1 domain2 (Homo sapiens (Human), UniProt Q15418)
Protocol: as §1

CN(C1CC1)S(=O)(=O)c1ccc(-c2cnc(N)c(-c3ccc4c(c3)CCNC4=O)c2)c(F)c1 [Compound I-28, 4-(6-amino-5-(1-oxo-1,2,3,4-tetrahydroisoquinolin-6-yl)pyridin-3-yl)-N-cyclopropyl-3-fluoro-N-methylbenzenesulfonamide]
inhibition at 10 µM (CDK5; read-out: % inhibition (range)): 0%
inhibition at 10 µM (CDK5; read-out: inhibition (10 μM)): 17%
% inhibition (range) (MAP3K2, MAP3K3; 10 μM): 0.0%
inhibition (10 μM) (MAP3K2, MAP3K3): 33.8%
inhibition (10 μM) (AurA): 33.1%
inhibition at 10 µM (AurA; read-out: % inhibition (range)): 0%
inhibition at 10 µM (AurA; read-out: inhibition (10 μM)): 27.5%
inhibition at 10 µM (NEK3; read-out: % inhibition (range)): 0%
inhibition at 10 µM (NEK3; read-out: inhibition (10 μM)): -27.2%
inhibition at 10 µM (CaMK1d; read-out: % inhibition (range)): 0%
inhibition at 10 µM (CaMK1d; read-out: inhibition (10 μM)): 15.2%
inhibition at 10 µM (STLK5; read-out: % inhibition (range)): 0%
inhibition at 10 µM (STLK5; read-out: inhibition (10 μM)): 6.3%
% inhibition (range) (p38d, p38g; 10 μM): 0.0%
inhibition (10 μM) (p38d, p38g): 7.7%
inhibition at 10 µM (LKB1; read-out: % inhibition (range)): 0%
inhibition at 10 µM (LKB1; read-out: inhibition (10 μM)): -0.6%
inhibition at 10 µM (MSK2 domain1; read-out: % inhibition (range)): 0%
inhibition at 10 µM (MSK2 domain1; read-out: inhibition (10 μM)): 2.9%
inhibition at 10 µM (GCN2 domain2; read-out: % inhibition (range)): 0%
inhibition at 10 µM (GCN2 domain2; read-out: inhibition (10 μM)): -32.1%
% inhibition (range) ([1]; 10 μM): 0.0%
inhibition (10 μM) [1]: 1.4%
inhibition at 10 µM (PRPK; read-out: % inhibition (range)): 0%
inhibition at 10 µM (PRPK; read-out: inhibition (10 μM)): 10.1%
% inhibition (range) (MARK2, MARK3; 10 μM): 0.0%
inhibition (10 μM) (MARK2, MARK3): −7.8%
% inhibition (range) ([2]; 10 μM): >90%
inhibition (10 μM) [2]: 94.5%
inhibition at 10 µM (TLK1; read-out: % inhibition (range)): 0%
inhibition at 10 µM (TLK1; read-out: inhibition (10 μM)): 1.8%
inhibition at 10 µM (MAP2K3; read-out: % inhibition (range)): 0%
inhibition at 10 µM (MAP2K3; read-out: inhibition (10 μM)): 1.4%
% inhibition (range) (NEK6, NEK7; 10 μM): 0.0%
inhibition (10 μM) (NEK6, NEK7): −10.5%
inhibition at 10 µM (IRAK4; read-out: % inhibition (range)): 0%
inhibition at 10 µM (IRAK4; read-out: inhibition (10 μM)): -0.7%
inhibition at 10 µM (SGK3; read-out: % inhibition (range)): 0%
inhibition at 10 µM (SGK3; read-out: inhibition (10 μM)): 9.9%
inhibition at 10 µM (MAST3; read-out: % inhibition (range)): 0%
inhibition at 10 µM (MAST3; read-out: inhibition (10 μM)): 14.2%
inhibition at 10 µM (p70S6K; read-out: % inhibition (range)): 0%
inhibition at 10 µM (p70S6K; read-out: inhibition (10 μM)): -22.7%
inhibition at 10 µM (MLK3; read-out: % inhibition (range)): 0%
inhibition at 10 µM (MLK3; read-out: inhibition (10 μM)): 11.7%
inhibition at 10 µM (PEK; read-out: % inhibition (range)): 0%
inhibition at 10 µM (PEK; read-out: inhibition (10 μM)): -15.7%
% inhibition (range) (MAP2K1, MAP2K2; 10 μM): 0.0%
inhibition (10 μM) (MAP2K1, MAP2K2): 0.5% and −0.9%
inhibition at 10 µM (NuaK2; read-out: % inhibition (range)): 0%
inhibition at 10 µM (NuaK2; read-out: inhibition (10 μM)): 11.2%
inhibition at 10 µM (MSK1 domain1; read-out: % inhibition (range)): 0%
inhibition at 10 µM (MSK1 domain1; read-out: inhibition (10 μM)): 5.4%
inhibition at 10 µM (BARK1; read-out: % inhibition (range)): 0%
inhibition at 10 µM (BARK1; read-out: inhibition (10 μM)): 22.3%
inhibition at 10 µM (LYN; read-out: % inhibition (range)): 0%
inhibition at 10 µM (LYN; read-out: inhibition (10 μM)): -10.3%
inhibition at 10 µM (PKR; read-out: % inhibition (range)): 0%
inhibition at 10 µM (PKR; read-out: inhibition (10 μM)): -0.8%
inhibition at 10 µM (PKCi; read-out: % inhibition (range)): 0%
inhibition at 10 µM (PKCi; read-out: inhibition (10 μM)): 12.7%
inhibition at 10 µM (JAK1 domain1; read-out: % inhibition (range)): 0%
inhibition at 10 µM (JAK1 domain1; read-out: inhibition (10 μM)): -38.6%
inhibition at 10 µM (FRAP; read-out: % inhibition (range)): 35 to 50%
inhibition at 10 µM (FRAP; read-out: inhibition (10 μM)): 35.3%
inhibition at 10 µM (MAP2K6; read-out: % inhibition (range)): 0%
inhibition at 10 µM (MAP2K6; read-out: inhibition (10 μM)): 27.6%
inhibition at 10 µM (RSK1 domain2; read-out: % inhibition (range)): 0%
inhibition at 10 µM (RSK1 domain2; read-out: inhibition (10 μM)): 3.8%
